These results are taken from paper PMC3692398 (Biochemical pharmacology, 2013).

This assay concerns the target h5-HT2A receptor (Homo sapiens, UniProt P28223). The settings on record: data not shown.

Sequence of h5-HT2A receptor (P28223 whole entry): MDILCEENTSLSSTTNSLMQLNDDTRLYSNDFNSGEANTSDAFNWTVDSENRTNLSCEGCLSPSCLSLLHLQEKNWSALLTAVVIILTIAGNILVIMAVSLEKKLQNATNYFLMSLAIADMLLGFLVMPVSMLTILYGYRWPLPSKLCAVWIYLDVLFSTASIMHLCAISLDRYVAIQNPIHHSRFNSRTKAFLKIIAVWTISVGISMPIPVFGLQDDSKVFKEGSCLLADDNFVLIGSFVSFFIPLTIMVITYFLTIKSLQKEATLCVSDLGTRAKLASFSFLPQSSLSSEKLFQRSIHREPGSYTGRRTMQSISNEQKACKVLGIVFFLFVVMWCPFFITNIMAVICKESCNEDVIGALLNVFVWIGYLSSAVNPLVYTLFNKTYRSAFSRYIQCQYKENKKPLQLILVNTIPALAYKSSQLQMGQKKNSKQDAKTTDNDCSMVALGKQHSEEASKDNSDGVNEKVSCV

As for `NCCc1c[nH]c2ccc(O)cc12` [5-HT, 5-hydroxy-tryptamine], the “h5-HT2A agonist activity, inositol monophosphate” value is “full agonists with potencies in the low nanomolar range”.

As to `CCN(CC)C(=O)[C@@H]1C=C2c3cccc4[nH]cc(c34)C[C@H]2N(C)C1` [LSD, lysergic acid diethylamide], the “h5-HT2A agonist activity, inositol monophosphate” value is reported as “full agonists with potencies in the low nanomolar range”.
